Assays:
BET BD2 = conditions: public sources, not a head-to-head trial, cited from earlier work
[1] = test system: goblet cells in gastrointestinal villi; conditions: at 28 days; Faivre et al.; not head-to-head; cited from earlier work
[2] = SLE (lupus) model: body weight; assay type: in vivo, MRL/MpJ-Faslpr mice; conditions: for Mean Body Weight: Cyclophosphamide 50 mg/kg IP once a week
Description: (§1) Female MRL/MpJ-Faslpr mice (The Jackson Laboratory) were used to assess the efficacy of Compound A in treating lupus. Starting when animals were 10 weeks of age, protein concentration in urine was measured using urine dipsticks.
(§2) At the start of the study, each group in the study had two animals that were 9 weeks old, and all others were 10 weeks old. Dosing of all animals with the test compounds began when the older animals were 11 weeks old. […] […] Dosing was at a consistent time each dosing day throughout the study.
(§3) Compound A may be formulated as illustrated in Experimental Method A (see Table 2E.). […] A stock solution of Compound A in DMSO (stock solution concentration of Compound A of 40 mg/mL) was prepared and aliquots for weekly preparations were frozen at −20° C. On each preparation day, a stock solution aliquot was thawed and diluted with other vehicle components to the desired concentration. Formulated Compound A and vehicle were at room temperature for dosing.
(§4) The study began when the older animals were 11 weeks old, and concluded when the older animals were 19 weeks old. Body weight was recorded once a week, with the exception of two weight measurements taken the first week of the study (when the older animals were 11 weeks old). Proteinuria was measured in the urine of animals with urine dipsticks once a week, starting when the older animals were 10 weeks old. […] Blood samples were taken retro-orbitally at the start of the study to establish a baseline (15 animals, 3 per group), and when the older animals were 16 weeks (all animals) and when animals were 19 weeks (all animals) at the conclusion of the study. Blood urea nitrogen (BUN) was measured in all animals at study termination in blood samples. After blood collection, animals were euthanized, perfused with PBS, and the left kidneys were collected and weighed and fixed in 10% buffered formalin. Left kidneys were then processed to a formalin-fixed, paraffin-embedded (FFPE) block, and histology was analyzed in Periodic Acid-Schiff-stained sections (1 section per slide), using the criteria described in Alperovich et al., Lupus, 16:18-24 (2007). Right kidneys were weighed and snap-frozen at −80° C. Spleens were also collected and weighed. SLE in animals treated with a BET inhibitor and vehicle.

lupus [3] = assay: SLE (lupus) model: proteinuria scores; assay type: in vivo, MRL/MpJ-Faslpr mice; conditions: Cyclophosphamide 50 mg/kg IP once a week
Description: as §1, §2, §3, §4

lupus [4] = assay: SLE (lupus) model: kidney histology lesion scores; assay type: in vivo, MRL/MpJ-Faslpr mice; conditions: Week 19
Description: as §1, §2, §3, §4

lupus [5] = assay: SLE (lupus) model: kidney and spleen weight; assay type: in vivo, MRL/MpJ-Faslpr mice; conditions: Week 19
Description: as §1, §2, §3, §4

lupus [6] = assay: SLE (lupus) model: blood urea nitrogen (BUN) in serum; assay type: in vivo, MRL/MpJ-Faslpr mice; conditions: Cyclophosphamide 50 mg/kg IP once a week; Week 19
Description: as §1
At the start of the study, each group in the study had two animals that were 9 weeks old, and all others were 10 weeks old. Dosing of all animals with the test compounds began when the older animals were 11 weeks old. Starting on Day 1, in Groups 1-4, vehicle or Compound A was administered per os (PO) […] (QD) as described above in Table 33. […] Dosing was at a consistent time each dosing day throughout the study.
as §3, §4
BUN provides important information about how well kidneys are working. A BUN test measures the amount of urea nitrogen in the blood and indicates how much urea has been processed by the kidneys and is indicative of renal competency. Urea is a waste product that is excreted in urine.

anti-dsDNA antibodies = assay: SLE (lupus) model: anti-dsDNA antibodies in serum by ELISA; assay type: in vivo, MRL/MpJ-Faslpr mice; conditions: for Anti-dsDNA Antibodies in serum, mean: Cyclophosphamide 50 mg/kg IP once a week
Description: as §1, §2, §3, §4
Anti-dsDNA antibody test measures the amount of antibody to double-stranded deoxyribonucleic acid (anti-dsDNA) that may be present in the blood. Anti-dsDNA antibodies are highly specific markers of SLE as these antibodies are not thought to be present in other kinds of autoimmune disorder.

IL-17A = IL-17A (Homo sapiens, UniProt Q16552); conditions: from FDA pharmacology review / corporate presentation; read-out: reported IC50 for IL-17A; cited from earlier work
[7] = Cyclophosphamide 50 mg/kg IP once a week

IL-17A, sequence (Q16552 24-155): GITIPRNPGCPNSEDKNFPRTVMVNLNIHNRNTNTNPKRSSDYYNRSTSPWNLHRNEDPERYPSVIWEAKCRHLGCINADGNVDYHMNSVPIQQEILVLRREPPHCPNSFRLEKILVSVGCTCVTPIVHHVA

For `CCS(=O)(=O)Nc1ccc(Oc2ccc(F)cc2F)c(-c2cn(C)c(=O)c3[nH]ccc23)c1` [ABBV-075], the BD2 (BET BD2; comparator BET inhibitors) is listed as 13 nM, the “Selectivity (BD1/BD2)” value (BET BD2; nanoBRET assay, comparator) is listed as 2.6x and the “Effect on goblet cells in gastrointestinal villi” value [1] is listed as “depleted goblet cells”.

Work on `O=P1(N(CCCl)CCCl)NCCCO1` (stereo not drawn) [Cyclophosphamide, cyclophosphamide, reference compound] yielded a Mean Body Weight ([2]; Week 11) of 35.0 g, a Mean Body Weight ([2]; Week 12) of 36.2 g and a Mean Body Weight ([2]; Week 13) of 36.1 g. For the same compound, the Mean Body Weight ([2]; Week 14) was 37.2 g, the Mean Body Weight ([2]; Week 15) was 37.5 g and the Mean Body Weight ([2]; Week 16) was 38.6 g. The Mean Body Weight ([2]; Week 17) was 38.6 g, the Mean Body Weight ([2]; Week 18) was 38.9 g and the Mean Body Weight ([2]; Week 19) was 39.1 g. The “Relative end body weight (% of Week 11) ± SEM” value ([2]; Cyclophosphamide group) was 111.8% ± 1.7%, the Mean proteinuria score (lupus [3]; Week 10) was 2.00 and the Mean proteinuria score (lupus [3]; Week 11) was 2.05±. The Mean proteinuria score (lupus [3]; Week 12) was 2.10, the Mean proteinuria score (lupus [3]; Week 13) was 2.35 and the Mean proteinuria score (lupus [3]; Week 14) was 2.35. The Mean proteinuria score (lupus [3]; Week 15) was 2.25, the Mean proteinuria score (lupus [3]; Week 16) was 1.85 and the Mean proteinuria score (lupus [3]; Week 17) was 2.05. For the same compound, the Mean proteinuria score (lupus [3]; Week 18) was 2.10, the Mean proteinuria score (lupus [3]; Week 19) was 2.25 and the “End proteinuria score ± SEM” value (lupus [3]; end of study (Week 19)) was 2.25 ± 0.13. For the same compound, the “Total Glomerular Lesion (mean score)” value (lupus [4]; [7]) was 0.3, the “Total Glomerular Lesion (table title: Mean Total Kidney Lesion Scores)” value (lupus [4]; [7]) was 0.6 and the “Total Tubular and Interstitial Lesion (mean score)” value (lupus [4]; [7]) was 0.3. For the same compound, the “Mean total glomerular lesion score” value (lupus [4]; cyclophosphamide group) was 0.3, the “Mean total kidney lesion score” value (lupus [4]; cyclophosphamide group) was “about 0.6” and the “Mean total tubular and interstitial lesion score” value (lupus [4]; cyclophosphamide group) was “about 0.3”. For the same compound, the “Mean Kidney Weight” value (lupus [5]; [7]) was 191 mg, the “Mean Spleen Weight” value (lupus [5]; [7]) was 116 mg and the “Kidney weights relative to controls” value (lupus [5]; Compound A (10 mg/kg) and cyclophosphamide groups) was “slightly decreased kidney weights”. For the same compound, the “Spleen weights relative to vehicle controls” value (lupus [5]; Compound A (all tested doses) and cyclophosphamide) was “decreased spleen weights”, the BUN serum concentration (lupus [6]) was 11.0 mg/dL and the “Anti-dsDNA Antibodies in serum, mean” value (anti-dsDNA antibodies; Week 16) was 28 units/mL. The “Anti-dsDNA Antibodies in serum, mean” value (anti-dsDNA antibodies; Week 19) was 23 units/mL and the “Anti-dsDNA antibodies in serum versus Vehicle group” value (anti-dsDNA antibodies; Week 16 and Week 19, Compound A (10 mg/mL) and Cyclophosphamide) was “effective in reducing levels to well below that seen with the Vehicle administered group”.

In the case of DC-806 [reference compound], the IC50 (IL-17A) is listed as 5.7 nM.
